Measured values from ChEMBL document CHEMBL1126278, “New neplanocin analogues. 1. Synthesis of 6'-modified neplanocin A derivatives as broad-spectrum antiviral agents” (J Med Chem, 1992).
In brackets after ≈: the same amount, converted by molar mass.

Assays:
MDCK [1] = test: cells; settings: Canis lupus familiaris
PRK [2] = test: Inhibitory effect on replication of DNA virus VV on PRK cell line.; format: functional, cell-based; settings: Oryctolagus cuniculus
HEL [3] = test: Inhibitory effect on replication of DNA virus VZV (YS) on HEL cell line.; format: functional, cell-based; settings: Homo sapiens
HEL [4] = test: Inhibitory effect on replication of DNA virus CMV (Davis) on HEL cell line.; format: functional, cell-based; settings: Homo sapiens
MDCK [5] = test: cells; settings: Canis lupus familiaris; remark: listed apart in the source
PRK [6] = test: Inhibitory effect on replication of DNA virus Cell morphology on PRK cell line; format: functional, cell-based; settings: Oryctolagus cuniculus
PRK [7] = test: Inhibitory effect on replication of RNA virus VSV in PRK cell line.; format: functional, cell-based; settings: Oryctolagus cuniculus
Vero [8] = test: Inhibitory effect on replication of RNA virus JV in Vero cell line.; format: functional, cell-based; settings: Chlorocebus sabaeus
PRK [9] = test: Inhibitory effect on replication of RNA virus cell morphology in PRK cell line.; format: functional, cell-based; settings: Oryctolagus cuniculus
Vero [10] = test: Inhibitory effect on replication of RNA virus SV in Vero cell line.; format: functional, cell-based; settings: Chlorocebus sabaeus
Vero [11] = test: Inhibitory effect on replication of RNA virus TV in Vero cell line.; format: functional, cell-based; settings: Chlorocebus sabaeus
MT4 [12] = test: Inhibitory effect on replication of RNA virus HIV-1 in MT-4 cell line.; format: functional, cell-based; settings: Homo sapiens
Vero [13] = test: Inhibitory effect on replication of RNA virus PV-3 in Vero cell line.; format: functional, cell-based; settings: Chlorocebus sabaeus
HeLa [14] = test: cells; settings: Homo sapiens
Vero [15] = test: Inhibitory effect on replication of RNA virus measles on Vero cell line.; format: functional, cell-based; settings: Chlorocebus sabaeus
Vero [16] = test: (§1) Inhibitory effect on replication of RNA virus cell morphology in Vero cell line.; format: functional, cell-based; settings: Chlorocebus sabaeus
HEL [17] = test: Inhibitory effect on replication of DNA virus CMV (AD-169) on HEL cell line.; format: functional, cell-based; settings: Homo sapiens
HeLa [18] = test: Inhibitory effect on replication of RNA virus cell morphology in HeLa cell line.; format: functional, cell-based; settings: Homo sapiens
HEL [19] = test: Inhibitory effect on replication of DNA virus Cell growth on HEL cell line.; format: functional, cell-based; settings: Homo sapiens
Vero [20] = test: Inhibitory effect on replication of RNA virus coxsB-4 in Vero cell line; format: functional, cell-based; settings: Chlorocebus sabaeus
Vero [21] = test: Inhibitory effect on replication of RNA virus SFV in Vero cell line; format: functional, cell-based; settings: Chlorocebus sabaeus
HeLa [22] = test: Inhibitory effect on replication of RNA virus coxsB-4 in HeLa cell line.; format: functional, cell-based; settings: Homo sapiens
[23] = Inhibitory effect on replication of DNA virus HSV-2 (G) in PRK cell line.; format: functional, cell-based; settings: Oryctolagus cuniculus
Vero [24] = test: Inhibitory effect on replication of RNA virus reo-1 in Vero cell line.; format: functional, cell-based; settings: Chlorocebus sabaeus
MT4 [25] = test: Inhibitory effect on replication of RNA virus cell growth in MT-4 cell line.; format: functional, cell-based; settings: Homo sapiens
[26] = Inhibitory effect on replication of DNA virus HSV-1 (KOS) in PRK cell line.; format: functional, cell-based; settings: Oryctolagus cuniculus
HEL [27] = test: Inhibitory effect on replication of DNA virus VZV (Oka) on HEL cell line.; format: functional, cell-based; settings: Homo sapiens
HEL [28] = test: Inhibitory effect on replication of DNA virus TK-VZV (07-1) on HEL cell line.; format: functional, cell-based; settings: Homo sapiens
HeLa [29] = test: Inhibitory effect on replication of RNA virus RSV in HeLa cell line; format: functional, cell-based; settings: Homo sapiens
MT4 [30] = test: Inhibitory effect on replication of RNA virus HIV-2 in MT-4 cell line.; format: functional, cell-based; settings: Homo sapiens
HeLa [31] = test: Inhibitory effect on replication of RNA virus VSV in HeLa cell line.; format: functional, cell-based; settings: Homo sapiens
HEL [32] = test: Inhibitory effect on replication of DNA virus TK-VZV (YSR) on HEL cell line.; format: functional, cell-based; settings: Homo sapiens
MDCK [33] = test: Inhibitory effect on replication of RNA virus cell morphology in MDCK cell line.; format: functional, cell-based; settings: Canis lupus familiaris
PRK [34] = test: Inhibitory effect on replication of virus Cell morphology on PRK cell line; format: functional, cell-based; settings: Oryctolagus cuniculus
Vero [35] = test: as §1; format: functional, cell-based, Homo sapiens; settings: Chlorocebus sabaeus
Vero [36] = test: Inhibitory effect on replication of RNA virus protein synthesis in Vero cell line.; format: functional, cell-based; settings: Chlorocebus sabaeus
Vero [37] = test: Inhibitory effect on replication of virus protein synthesis in Vero cell line.; format: functional, cell-based; settings: Chlorocebus sabaeus
Vero [38] = test: Inhibitory effect on replication of RNA virus RNA synthesis in Vero cell line.; format: functional, cell-based; settings: Chlorocebus sabaeus

| SMILES | IC50 (MDCK [1]) | IC50 (HEL [3]) | IC50 (HEL [4]) | IC50 (MDCK [5]) | IC50 (PRK [7]) | IC50 (Vero [8]) | IC50 (PRK [9]) | IC50 (Vero [10]) | IC50 (Vero [11]) | IC50 (MT4 [12]) | IC50 (Vero [13]) | IC50 (HeLa [14]) | IC50 (Vero [15]) | IC50 (HEL [17]) | IC50 (Vero [20]) | IC50 (Vero [21]) | IC50 (HeLa [22]) | IC50 [23] | IC50 (Vero [24]) | IC50 (MT4 [25]) | also measured |
| --- | --- | --- | --- | --- | --- | --- | --- | --- | --- | --- | --- | --- | --- | --- | --- | --- | --- | --- | --- | --- | --- |
| COCC1=C[C@@H](n2cnc3c(N)ncnc32)[C@H](O)[C@@H]1O | > 100 µg/mL | 300 µg/mL (≈ 1080 µM) | 25 µg/mL (≈ 90.2 µM) | > 100 µg/mL | 20 µg/mL (≈ 72.1 µM) | 20 µg/mL (≈ 72.1 µM) | > 400 µg/mL | 70 µg/mL (≈ 252 µM) | 20 µg/mL (≈ 72.1 µM) | > 40 µg/mL | 70 µg/mL (≈ 252 µM) | > 200 µg/mL | 40 µg/mL (≈ 144 µM) | 40 µg/mL (≈ 144 µM) | > 400 µg/mL | > 400 µg/mL | > 200 µg/mL | > 400 µg/mL | 10 µg/mL (≈ 36.1 µM) | 45 µg/mL (≈ 162 µM) | IC50 (PRK [2]): 20 µg/mL (≈ 72.1 µM); IC50 (PRK [6]): > 400 µg/mL; IC50 (Vero [16]): 400 µg/mL (≈ 1440 µM); IC50 (HeLa [18]): > 400 µg/mL; IC50 (HEL [19]): 200 µg/mL (≈ 721 µM); IC50 [26]: > 400 µg/mL; IC50 (HEL [27]): 200 µg/mL (≈ 721 µM); IC50 (HEL [28]): 100 µg/mL (≈ 361 µM); IC50 (HeLa [29]): 100 µg/mL (≈ 361 µM); IC50 (MT4 [30]): > 40 µg/mL; IC50 (HeLa [31]): 150 µg/mL (≈ 541 µM); IC50 (HEL [32]): 60 µg/mL (≈ 216 µM); IC50 (MDCK [33]): > 100 µg/mL |
| CSCC1=C[C@@H](n2cnc3c(N)ncnc32)[C@H](O)[C@@H]1O | > 100 µg/mL | 2 µg/mL (≈ 6.82 µM) | 1 µg/mL (≈ 3.41 µM) | > 100 µg/mL | 70 µg/mL (≈ 239 µM) | 40 µg/mL (≈ 136 µM) | > 400 µg/mL | > 200 µg/mL | 40 µg/mL (≈ 136 µM) | > 40 µg/mL | > 200 µg/mL | > 200 µg/mL | 40 µg/mL (≈ 136 µM) | 1.5 µg/mL (≈ 5.11 µM) | > 200 µg/mL | > 400 µg/mL | > 200 µg/mL | > 400 µg/mL | 40 µg/mL (≈ 136 µM) | 60 µg/mL (≈ 205 µM) | IC50 (PRK [2]): 70 µg/mL (≈ 239 µM); IC50 (PRK [34]): > 400 µg/mL; IC50 (Vero [35]): > 400 µg/mL; IC50 (HeLa [18]): > 400 µg/mL; IC50 (HEL [19]): 9 µg/mL (≈ 30.7 µM); IC50 [26]: > 400 µg/mL; IC50 (HEL [27]): 2.5 µg/mL (≈ 8.52 µM); IC50 (HEL [28]): 2 µg/mL (≈ 6.82 µM); IC50 (HeLa [29]): > 40 µg/mL; IC50 (MT4 [30]): > 40 µg/mL; IC50 (HeLa [31]): > 200 µg/mL; IC50 (HEL [32]): 5 µg/mL (≈ 17 µM); IC50 (MDCK [33]): > 100 µg/mL |
| Nc1ncnc2c1ncn2[C@@H]1C=C(CCl)[C@@H](O)[C@H]1O | > 10 µg/mL | 2 µg/mL (≈ 7.1 µM) | 0.7 µg/mL (≈ 2.48 µM) | > 10 µg/mL | 0.7 µg/mL (≈ 2.48 µM) | 2 µg/mL (≈ 7.1 µM) | 40 µg/mL (≈ 142 µM) | > 40 µg/mL | 2 µg/mL (≈ 7.1 µM) | > 0.06 µg/mL | 7 µg/mL (≈ 24.8 µM) | > 40 µg/mL | 0.8 µg/mL (≈ 2.84 µM) | 2 µg/mL (≈ 7.1 µM) | > 40 µg/mL | > 40 µg/mL | > 40 µg/mL | > 20 µg/mL | 0.7 µg/mL (≈ 2.48 µM) | 0.2 µg/mL (≈ 0.71 µM) | IC50 (PRK [6]): 40 µg/mL (≈ 142 µM); IC50 (Vero [16]): 40 µg/mL (≈ 142 µM); IC50 (HEL [19]): 9 µg/mL (≈ 31.9 µM); IC50 (Vero [36]): 0.8 µg/mL (≈ 2.84 µM); IC50 [26]: > 20 µg/mL; IC50 (HEL [27]): 2.5 µg/mL (≈ 8.87 µM); IC50 (HEL [28]): 1 µg/mL (≈ 3.55 µM); IC50 (HeLa [29]): 0.8 µg/mL (≈ 2.84 µM); IC50 (HEL [32]): 2 µg/mL (≈ 7.1 µM); IC50 (Vero [37]): 5 µg/mL (≈ 17.7 µM); IC50 (MDCK [33]): 10 µg/mL (≈ 35.5 µM) |
| Nc1ncnc2c1ncn2[C@@H]1C=C(CF)[C@@H](O)[C@H]1O | > 100 µg/mL | 150 µg/mL (≈ 566 µM) | 2.5 µg/mL (≈ 9.43 µM) | > 100 µg/mL | 0.2 µg/mL (≈ 0.754 µM) | 0.4 µg/mL (≈ 1.51 µM) | > 400 µg/mL | 7 µg/mL (≈ 26.4 µM) | 0.4 µg/mL (≈ 1.51 µM) | > 1.5 µg/mL | 7 µg/mL (≈ 26.4 µM) | > 200 µg/mL | 10 µg/mL (≈ 37.7 µM) | 2.5 µg/mL (≈ 9.43 µM) | > 200 µg/mL | 200 µg/mL (≈ 754 µM) | > 200 µg/mL | > 400 µg/mL | 2 µg/mL (≈ 7.54 µM) | 3 µg/mL (≈ 11.3 µM) | IC50 (PRK [2]): 2 µg/mL (≈ 7.54 µM); IC50 (Vero [38]): 5 µg/mL (≈ 18.9 µM); IC50 (PRK [6]): > 400 µg/mL; IC50 (Vero [16]): 40 µg/mL (≈ 151 µM); IC50 (HeLa [18]): > 200 µg/mL; IC50 (Vero [36]): 65 µg/mL (≈ 245 µM); IC50 [26]: > 400 µg/mL; IC50 (HEL [27]): 70 µg/mL (≈ 264 µM); IC50 (HEL [28]): 20 µg/mL (≈ 75.4 µM); IC50 (HeLa [29]): 10 µg/mL (≈ 37.7 µM); IC50 (MT4 [30]): > 1.5 µg/mL; IC50 (HeLa [31]): 2 µg/mL (≈ 7.54 µM); IC50 (HEL [32]): 20 µg/mL (≈ 75.4 µM); IC50 (MDCK [33]): > 100 µg/mL |
